According to ChEMBL document CHEMBL4507261, “Data for DCP probe A-192621” (2021):

Tests used:
[1] = molecular target: Acetylcholinesterase (Homo sapiens) (UniProt P22303); assay: Acetylcholinesterase (h) Eurofins-Cerep enzyme and uptake assay; details: Compound concentration 10.0 uM
[2] = molecular target: Adenosine receptor A2a (Homo sapiens) (UniProt P29274); assay: A2A (h) Eurofins-Cerep binding assay; parameters: ligand concentration 6 nM; details: filed as agonist, Compound concentration 10.0 uM
[3] = molecular target: T1, Alpha-1A adrenergic receptor (Homo sapiens) (UniProt P35348); assay: Alpha1A (h) Eurofins-Cerep binding assay; parameters: ligand concentration 0.1 nM; details: filed as antagonist, Compound concentration 10.0 uM
T1 sequence (whole entry): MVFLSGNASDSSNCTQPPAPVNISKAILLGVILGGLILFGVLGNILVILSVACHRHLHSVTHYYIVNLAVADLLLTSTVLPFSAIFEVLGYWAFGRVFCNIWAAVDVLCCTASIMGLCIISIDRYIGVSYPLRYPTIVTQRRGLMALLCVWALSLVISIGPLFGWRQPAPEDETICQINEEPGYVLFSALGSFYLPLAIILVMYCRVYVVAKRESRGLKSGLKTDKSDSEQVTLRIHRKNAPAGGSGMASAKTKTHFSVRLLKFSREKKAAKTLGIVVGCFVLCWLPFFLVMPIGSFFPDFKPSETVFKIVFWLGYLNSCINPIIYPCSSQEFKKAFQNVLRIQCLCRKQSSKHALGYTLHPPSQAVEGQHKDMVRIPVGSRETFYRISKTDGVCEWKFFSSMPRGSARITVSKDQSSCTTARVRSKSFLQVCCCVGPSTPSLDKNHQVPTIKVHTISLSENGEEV

[4] = molecular target: Prostaglandin E2 receptor EP2 subtype (Homo sapiens) (UniProt P43116); assay: EP2 (h) Eurofins-Cerep binding assay; parameters: ligand concentration 3 nM; details: filed as agonist, Compound concentration 10.0 uM
[5] = system: Tyrosine-protein kinase ABL1 (Homo sapiens), P00519 [Q252H]; details: Compound concentration 1000.0 nM
[6] = molecular target: 5'-AMP-activated protein kinase catalytic subunit alpha-1 (Homo sapiens) (UniProt Q13131); details: Compound concentration 1000.0 nM
[7] = molecular target: 5'-AMP-activated protein kinase catalytic subunit alpha-2 (Homo sapiens) (UniProt P54646); details: Compound concentration 1000.0 nM
[8] = molecular target: NUAK family SNF1-like kinase 1 (Homo sapiens) (UniProt O60285); details: Compound concentration 1000.0 nM
[9] = molecular target: Mitotic checkpoint serine/threonine-protein kinase BUB1 (Homo sapiens) (UniProt O43683); details: Compound concentration 1000.0 nM
[10] = molecular target: Calcium/calmodulin-dependent protein kinase type 1B (Homo sapiens) (UniProt Q6P2M8); details: Compound concentration 1000.0 nM
[11] = molecular target: Calcium/calmodulin-dependent protein kinase kinase 1 (Homo sapiens) (UniProt Q8N5S9); details: Compound concentration 1000.0 nM
[12] = molecular target: Cyclin-dependent kinase 2 (Homo sapiens) (UniProt P24941); details: Compound concentration 1000.0 nM
[13] = molecular target: Cyclin-dependent kinase-like 1 (Homo sapiens) (UniProt Q00532); details: Compound concentration 1000.0 nM
Cyclin-dependent kinase-like 1 (Homo sapiens), sequence (Q00532 whole entry): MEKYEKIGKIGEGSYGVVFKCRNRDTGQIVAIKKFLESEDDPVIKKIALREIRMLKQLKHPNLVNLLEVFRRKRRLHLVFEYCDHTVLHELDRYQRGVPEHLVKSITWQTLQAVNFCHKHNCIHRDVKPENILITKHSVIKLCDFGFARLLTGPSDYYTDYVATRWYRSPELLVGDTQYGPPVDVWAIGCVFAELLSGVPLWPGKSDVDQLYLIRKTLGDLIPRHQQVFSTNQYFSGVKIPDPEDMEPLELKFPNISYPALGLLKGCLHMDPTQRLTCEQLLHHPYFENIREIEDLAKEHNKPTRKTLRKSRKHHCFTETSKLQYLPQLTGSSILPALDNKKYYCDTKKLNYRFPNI

[14] = system: Epidermal growth factor receptor (Homo sapiens), P00533 [UNDEFINED MUTATION]; details: Compound concentration 1000.0 nM
Epidermal growth factor receptor (Homo sapiens), P00533 [UNDEFINED MUTATION], sequence (P00533 whole entry, looked up, change not shown): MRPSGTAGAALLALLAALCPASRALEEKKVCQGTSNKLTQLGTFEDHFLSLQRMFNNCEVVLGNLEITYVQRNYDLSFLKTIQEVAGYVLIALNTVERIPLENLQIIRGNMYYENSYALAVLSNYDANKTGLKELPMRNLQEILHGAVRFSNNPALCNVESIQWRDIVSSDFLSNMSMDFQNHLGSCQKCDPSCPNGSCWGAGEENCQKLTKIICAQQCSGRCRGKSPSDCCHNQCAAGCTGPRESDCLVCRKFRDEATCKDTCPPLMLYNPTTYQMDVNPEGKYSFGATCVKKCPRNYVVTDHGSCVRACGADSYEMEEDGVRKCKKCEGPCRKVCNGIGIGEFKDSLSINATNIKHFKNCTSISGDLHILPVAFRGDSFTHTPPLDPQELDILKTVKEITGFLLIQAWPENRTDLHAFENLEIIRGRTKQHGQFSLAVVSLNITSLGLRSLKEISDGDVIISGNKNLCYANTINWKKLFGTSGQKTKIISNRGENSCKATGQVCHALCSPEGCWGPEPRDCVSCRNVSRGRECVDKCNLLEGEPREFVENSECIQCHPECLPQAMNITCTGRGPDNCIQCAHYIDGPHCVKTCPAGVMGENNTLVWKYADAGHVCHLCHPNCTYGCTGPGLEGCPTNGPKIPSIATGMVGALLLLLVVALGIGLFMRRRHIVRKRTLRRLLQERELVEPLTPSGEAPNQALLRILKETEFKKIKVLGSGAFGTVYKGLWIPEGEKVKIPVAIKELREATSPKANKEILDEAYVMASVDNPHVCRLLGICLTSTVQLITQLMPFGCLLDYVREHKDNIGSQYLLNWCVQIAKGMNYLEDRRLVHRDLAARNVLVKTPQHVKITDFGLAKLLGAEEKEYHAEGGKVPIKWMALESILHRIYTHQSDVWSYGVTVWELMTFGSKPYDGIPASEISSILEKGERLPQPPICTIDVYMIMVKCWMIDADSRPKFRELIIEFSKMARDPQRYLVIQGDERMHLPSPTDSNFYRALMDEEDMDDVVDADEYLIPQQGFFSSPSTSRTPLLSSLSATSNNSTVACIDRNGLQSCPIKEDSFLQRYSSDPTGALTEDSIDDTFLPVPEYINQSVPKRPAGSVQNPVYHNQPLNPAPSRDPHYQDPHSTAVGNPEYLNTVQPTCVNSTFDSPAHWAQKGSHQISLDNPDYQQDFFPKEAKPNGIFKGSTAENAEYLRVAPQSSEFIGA

[15] = molecular target: Tyrosine-protein kinase FRK (Homo sapiens) (UniProt P42685); details: Compound concentration 1000.0 nM
[16] = molecular target: Beta-adrenergic receptor kinase 1 (Homo sapiens) (UniProt P25098); details: Compound concentration 1000.0 nM
[17] = molecular target: Glycogen synthase kinase-3 alpha (Homo sapiens) (UniProt P49840); details: Compound concentration 1000.0 nM
[18] = molecular target: Interleukin-1 receptor-associated kinase 3 (Homo sapiens) (UniProt Q9Y616); details: Compound concentration 1000.0 nM
[19] = molecular target: MAP kinase-activated protein kinase 5 (Homo sapiens) (UniProt Q8IW41); details: Compound concentration 1000.0 nM
[20] = molecular target: Microtubule-associated serine/threonine-protein kinase 1 (Homo sapiens) (UniProt Q9Y2H9); details: Compound concentration 1000.0 nM
Microtubule-associated serine/threonine-protein kinase 1 (Homo sapiens), sequence (Q9Y2H9 whole entry, looked up): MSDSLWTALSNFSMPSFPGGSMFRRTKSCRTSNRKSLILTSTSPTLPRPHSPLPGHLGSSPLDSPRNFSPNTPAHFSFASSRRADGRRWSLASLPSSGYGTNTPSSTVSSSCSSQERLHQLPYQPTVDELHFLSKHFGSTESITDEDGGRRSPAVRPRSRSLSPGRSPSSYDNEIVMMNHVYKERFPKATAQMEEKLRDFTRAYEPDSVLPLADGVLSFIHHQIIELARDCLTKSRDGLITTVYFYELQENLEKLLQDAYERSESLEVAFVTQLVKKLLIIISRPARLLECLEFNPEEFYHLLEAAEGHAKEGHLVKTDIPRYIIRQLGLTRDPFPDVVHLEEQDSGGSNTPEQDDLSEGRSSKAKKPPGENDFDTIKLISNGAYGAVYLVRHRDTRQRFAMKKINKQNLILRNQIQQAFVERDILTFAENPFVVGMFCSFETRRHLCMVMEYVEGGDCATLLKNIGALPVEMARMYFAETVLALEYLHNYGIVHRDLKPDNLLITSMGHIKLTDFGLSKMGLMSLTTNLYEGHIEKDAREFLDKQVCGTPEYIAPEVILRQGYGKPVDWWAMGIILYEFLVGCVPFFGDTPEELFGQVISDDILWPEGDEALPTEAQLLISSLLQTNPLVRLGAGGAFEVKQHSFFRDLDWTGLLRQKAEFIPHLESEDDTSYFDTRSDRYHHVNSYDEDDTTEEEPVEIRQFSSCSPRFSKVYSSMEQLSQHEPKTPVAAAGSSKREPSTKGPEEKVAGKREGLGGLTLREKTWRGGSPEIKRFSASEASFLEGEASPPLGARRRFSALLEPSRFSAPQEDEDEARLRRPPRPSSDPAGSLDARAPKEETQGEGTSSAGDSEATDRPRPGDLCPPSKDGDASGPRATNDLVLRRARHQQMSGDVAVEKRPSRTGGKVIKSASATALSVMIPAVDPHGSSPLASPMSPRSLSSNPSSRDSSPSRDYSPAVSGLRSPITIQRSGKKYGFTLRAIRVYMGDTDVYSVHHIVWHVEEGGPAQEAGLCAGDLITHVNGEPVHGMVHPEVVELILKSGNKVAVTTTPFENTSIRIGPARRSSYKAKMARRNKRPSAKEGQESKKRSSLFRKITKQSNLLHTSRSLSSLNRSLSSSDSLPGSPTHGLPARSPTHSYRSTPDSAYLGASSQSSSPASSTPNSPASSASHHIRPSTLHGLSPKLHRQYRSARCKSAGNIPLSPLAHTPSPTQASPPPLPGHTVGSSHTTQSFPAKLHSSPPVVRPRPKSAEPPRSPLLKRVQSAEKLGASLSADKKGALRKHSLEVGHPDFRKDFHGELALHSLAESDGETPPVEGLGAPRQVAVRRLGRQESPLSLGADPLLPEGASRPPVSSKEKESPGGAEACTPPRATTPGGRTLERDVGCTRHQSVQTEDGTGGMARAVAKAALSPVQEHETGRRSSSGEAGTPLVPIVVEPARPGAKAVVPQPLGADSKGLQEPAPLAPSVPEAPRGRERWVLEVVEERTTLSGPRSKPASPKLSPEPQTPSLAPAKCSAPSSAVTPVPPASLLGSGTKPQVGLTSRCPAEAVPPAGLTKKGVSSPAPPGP

[21] = molecular target: Misshapen-like kinase 1 (Homo sapiens) (UniProt Q8N4C8); details: Compound concentration 1000.0 nM
[22] = molecular target: Mitogen-activated protein kinase kinase kinase 10 (Homo sapiens) (UniProt Q02779); details: Compound concentration 1000.0 nM
[23] = molecular target: Serine/threonine-protein kinase Nek3 (Homo sapiens) (UniProt P51956); details: Compound concentration 1000.0 nM
Serine/threonine-protein kinase Nek3 (Homo sapiens), sequence (P51956 whole entry): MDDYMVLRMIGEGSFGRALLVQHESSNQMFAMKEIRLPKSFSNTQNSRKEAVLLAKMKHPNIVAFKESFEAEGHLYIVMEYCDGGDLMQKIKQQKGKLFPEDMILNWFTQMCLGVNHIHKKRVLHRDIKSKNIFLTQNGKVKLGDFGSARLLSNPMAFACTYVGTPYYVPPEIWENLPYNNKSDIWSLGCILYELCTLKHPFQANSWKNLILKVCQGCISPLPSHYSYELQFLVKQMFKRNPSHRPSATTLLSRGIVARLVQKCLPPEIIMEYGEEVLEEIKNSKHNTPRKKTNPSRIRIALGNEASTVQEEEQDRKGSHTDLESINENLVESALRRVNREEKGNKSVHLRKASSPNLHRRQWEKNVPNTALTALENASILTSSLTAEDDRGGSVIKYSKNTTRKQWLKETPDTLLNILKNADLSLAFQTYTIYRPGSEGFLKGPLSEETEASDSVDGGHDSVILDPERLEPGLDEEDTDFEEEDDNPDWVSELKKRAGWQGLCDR

[24] = molecular target: Cyclin-dependent kinase 17 (Homo sapiens) (UniProt Q00537); details: Compound concentration 1000.0 nM
[25] = molecular target: Serine/threonine-protein kinase pim-3 (Homo sapiens) (UniProt Q86V86); details: Compound concentration 1000.0 nM
[26] = molecular target: cAMP-dependent protein kinase catalytic subunit alpha (Homo sapiens) (UniProt P17612); details: Compound concentration 1000.0 nM
[27] = molecular target: cAMP-dependent protein kinase catalytic subunit beta (Homo sapiens) (UniProt P22694); details: Compound concentration 1000.0 nM
[28] = molecular target: Serine/threonine-protein kinase PLK4 (Homo sapiens) (UniProt O00444); details: Compound concentration 1000.0 nM
[29] = molecular target: cAMP-dependent protein kinase catalytic subunit PRKX (Homo sapiens) (UniProt P51817); details: Compound concentration 1000.0 nM
cAMP-dependent protein kinase catalytic subunit PRKX (Homo sapiens), sequence (P51817 whole entry): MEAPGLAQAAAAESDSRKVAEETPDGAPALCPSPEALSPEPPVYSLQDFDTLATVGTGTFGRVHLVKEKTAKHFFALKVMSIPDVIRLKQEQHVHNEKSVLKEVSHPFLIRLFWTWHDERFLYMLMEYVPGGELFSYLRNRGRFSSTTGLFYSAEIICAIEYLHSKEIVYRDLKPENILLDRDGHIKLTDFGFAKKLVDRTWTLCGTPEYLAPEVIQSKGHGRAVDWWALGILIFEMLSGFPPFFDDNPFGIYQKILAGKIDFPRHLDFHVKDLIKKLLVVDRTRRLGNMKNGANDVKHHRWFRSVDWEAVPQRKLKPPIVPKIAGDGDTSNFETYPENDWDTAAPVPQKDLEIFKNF

[30] = molecular target: Serine/threonine-protein kinase RIO3 (Homo sapiens) (UniProt O14730); details: Compound concentration 1000.0 nM
[31] = molecular target: Ribosomal protein S6 kinase alpha-1 (Homo sapiens) (UniProt Q15418); details: Compound concentration 1000.0 nM
Ribosomal protein S6 kinase alpha-1 (Homo sapiens), sequence (Q15418 whole entry): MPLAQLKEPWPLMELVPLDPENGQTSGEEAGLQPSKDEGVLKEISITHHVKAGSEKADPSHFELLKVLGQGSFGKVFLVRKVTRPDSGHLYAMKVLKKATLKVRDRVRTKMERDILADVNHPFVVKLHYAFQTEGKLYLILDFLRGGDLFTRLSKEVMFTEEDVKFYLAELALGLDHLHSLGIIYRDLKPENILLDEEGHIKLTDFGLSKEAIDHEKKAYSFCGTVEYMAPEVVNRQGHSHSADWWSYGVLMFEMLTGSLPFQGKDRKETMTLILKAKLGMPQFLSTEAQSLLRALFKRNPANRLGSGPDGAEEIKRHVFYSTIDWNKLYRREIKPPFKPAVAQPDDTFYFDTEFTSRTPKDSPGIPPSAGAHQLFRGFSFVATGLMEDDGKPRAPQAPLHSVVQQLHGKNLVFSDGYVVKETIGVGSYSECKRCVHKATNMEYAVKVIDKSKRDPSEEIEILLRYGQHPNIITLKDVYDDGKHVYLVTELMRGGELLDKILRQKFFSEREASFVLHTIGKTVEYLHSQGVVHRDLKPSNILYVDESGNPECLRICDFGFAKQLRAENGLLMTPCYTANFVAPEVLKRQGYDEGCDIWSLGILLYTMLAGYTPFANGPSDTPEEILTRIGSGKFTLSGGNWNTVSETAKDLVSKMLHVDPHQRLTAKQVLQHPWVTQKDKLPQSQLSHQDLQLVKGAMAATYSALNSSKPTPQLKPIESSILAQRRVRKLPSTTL

[32] = molecular target: Serine/threonine-protein kinase SIK1 (Homo sapiens) (UniProt P57059); details: Compound concentration 1000.0 nM
[33] = molecular target: Serine/threonine-protein kinase TAO1 (Homo sapiens) (UniProt Q7L7X3); details: Compound concentration 1000.0 nM
[34] = molecular target: TRAF2 and NCK-interacting protein kinase (Homo sapiens) (UniProt Q9UKE5); details: Compound concentration 1000.0 nM
[35] = molecular target: Transient receptor potential cation channel subfamily M member 6 (Homo sapiens) (UniProt Q9BX84); details: Compound concentration 1000.0 nM
[36] = molecular target: Serine/threonine-protein kinase 25 (Homo sapiens) (UniProt O00506); details: Compound concentration 1000.0 nM
[37] = molecular target: GABA-A receptor; anion channel (Rattus norvegicus) (UniProt O09028+P15431+P18506+P18508+P19969+P20236+P23574+P23576+P28471+P28473+P30191+P62813+P63079+P63138+Q91ZM7+Q9ES14); details: Compound concentration 10.0 uM

## CCCOc1ccc([C@H]2[C@H](C(=O)O)[C@@H](c3ccc4c(c3)OCO4)CN2CC(=O)Nc2c(CC)cccc2CC)cc1 [A-192621]
[1]
  % Inhibition of Control Values (Mean n=2): 7%
[2]
  % Inhibition of Control Specific Binding (Mean n=2): -4.8%
[3]
  % Inhibition of Control Specific Binding (Mean n=2): 5%
[4]
  % Inhibition of Control Specific Binding (Mean n=2): 10.1%
[5]
  residual activity: 61%
[6]
  residual activity: 100%
[7]
  residual activity: 100%
[8]
  residual activity: 83%
[9]
  residual activity: 98%
[10]
  residual activity: 77%
[11]
  residual activity: 86%
[12]
  residual activity: 87%
[13]
  residual activity: 66%
[14]
  residual activity: 100%
[15]
  residual activity: 100%
[16]
  residual activity: 51%
[17]
  residual activity: 86%
[18]
  residual activity: 100%
[19]
  residual activity: 65%
[20]
  residual activity: 93%
[21]
  residual activity: 68%
[22]
  residual activity: 100%
[23]
  residual activity: 69%
[24]
  residual activity: 91%
[25]
  residual activity: 88%
[26]
  residual activity: 100%
[27]
  residual activity: 87%
[28]
  residual activity: 78%
[29]
  residual activity: 91%
[30]
  residual activity: 100%
[31]
  residual activity: 87%
[32]
  residual activity: 100%
[33]
  residual activity: 84%
[34]
  residual activity: 88%
[35]
  residual activity: 94%
[36]
  residual activity: 100%
[37]
  inhibition: 5.57%

## CCCOc1ccc([C@@H]2[C@@H](C(=O)O)[C@H](c3ccc4c(c3)OCO4)CN2CC(=O)Nc2c(CC)cccc2CC)cc1 [A-1806262]
[1]
  % Inhibition of Control Values (Mean n=2): 4%
[2]
  % Inhibition of Control Specific Binding (Mean n=2): -12.4%
[3]
  % Inhibition of Control Specific Binding (Mean n=2): 3.7%
[4]
  % Inhibition of Control Specific Binding (Mean n=2): 10.7%
[5]
  residual activity: 92%
[6]
  residual activity: 96%
[7]
  residual activity: 95%
[8]
  residual activity: 99%
[9]
  residual activity: 92%
[10]
  residual activity: 100%
[11]
  residual activity: 81%
[12]
  residual activity: 87%
[13]
  residual activity: 77%
[14]
  residual activity: 100%
[15]
  residual activity: 89%
[16]
  residual activity: 89%
[17]
  residual activity: 100%
[18]
  residual activity: 100%
[19]
  residual activity: 87%
[20]
  residual activity: 100%
[21]
  residual activity: 78%
[22]
  residual activity: 100%
[23]
  residual activity: 100%
[24]
  residual activity: 90%
[25]
  residual activity: 95%
[26]
  residual activity: 100%
[27]
  residual activity: 100%
[28]
  residual activity: 82%
[29]
  residual activity: 89%
[30]
  residual activity: 100%
[31]
  residual activity: 100%
[32]
  residual activity: 100%
[33]
  residual activity: 100%
[34]
  residual activity: 100%
[35]
  residual activity: 77%
[36]
  residual activity: 100%
